According to ChEMBL document CHEMBL1201862, “PubChem BioAssay data set” (2004):
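How tested: cells in 96-well plates exposed to compound for 48 hours at five concentrations. At the GI50, growth is halved.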 Calls of active or inactive are those of the source. Rule as the data show it: active = GI50 up to about 1.1 µM and inactive = higher.

Columns and labels:
Experiment in all cases: growth of human tumour cells (NCI), 48 h
786-0 = test system: 786-0
EKVX = test system: EKVX
OVCAR-3 = test system: OVCAR-3
RXF 393 = test system: RXF 393
PC-3 = test system: PC-3
TK-10 = test system: TK-10
Hs-578T = test system: Hs-578T
LOX IMVI = test system: LOX IMVI
HOP-92 = test system: HOP-92
HCC 2998 = test system: HCC 2998
HOP-62 = test system: HOP-62
SK-MEL-2 = test system: SK-MEL-2
UO-31 = test system: UO-31
NCI-H226 = test system: NCI-H226
HL-60 = test system: HL-60
Malme-3M = test system: Malme-3M
NCI-H23 = test system: NCI-H23
IGROV-1 = test system: IGROV-1
SR = test system: SR

SMILES	GI50 (786-0)	GI50 (EKVX)	GI50 (OVCAR-3)	GI50 (RXF 393)	GI50 (PC-3)	GI50 (TK-10)	GI50 (Hs-578T)	GI50 (LOX IMVI)	GI50 (HOP-92)	GI50 (HCC 2998)	GI50 (HOP-62)	GI50 (SK-MEL-2)	GI50 (UO-31)	GI50 (NCI-H226)	GI50 (HL-60)	GI50 (Malme-3M)	GI50 (NCI-H23)	GI50 (IGROV-1)	GI50 (SR)
C[C@H](O)C1CC(Cn2nnc3c(N)ncnc32)C1(C)C (stereo partly specified)	> 100 µM (inactive)	> 100 µM (inactive)	> 100 µM (inactive)	> 100 µM (inactive)	> 100 µM (inactive)	> 100 µM (inactive)	> 100 µM (inactive)	> 100 µM (inactive)	> 100 µM (inactive)	> 100 µM (inactive)	> 100 µM (inactive)	> 100 µM (inactive)	> 100 µM (inactive)	> 100 µM (inactive)	–	–	–	–	–
Cc1nc2ccccc2n1Cc1ccc(NC(=S)NC2CCCCC2)cc1	36.9 µM (inactive)	12.3 µM (inactive)	10.8 µM (inactive)	23.8 µM (inactive)	31.3 µM (inactive)	> 100 µM (inactive)	29 µM (inactive)	10.6 µM (inactive)	41.3 µM (inactive)	36.6 µM (inactive)	> 75 µM (inactive)	15.7 µM (inactive)	41 µM (inactive)	24.9 µM (inactive)	25.6 µM (inactive)	21.7 µM (inactive)	17.5 µM (inactive)	20 µM (inactive)	–
CC(C)(C)c1cc(COc2cc(COc3ccc(-c4c5c(nc6c4CCc4ccc(-c7c8ccccc8nc8ccccc78)cc4-6)-c4cc(-c6c7ccccc7nc7ccccc67)ccc4CC5)cc3)cc(OCc3cc(C(C)(C)C)cc(C(C)(C)C)c3)c2)cc(C(C)(C)C)c1	> 100 µM (inactive)	> 100 µM (inactive)	> 100 µM (inactive)	–	> 100 µM (inactive)	> 100 µM (inactive)	–	–	> 100 µM (inactive)	80.5 µM (inactive)	> 100 µM (inactive)	> 100 µM (inactive)	> 100 µM (inactive)	> 100 µM (inactive)	–	89.3 µM (inactive)	> 100 µM (inactive)	–	–
C[C@H]1OC(=O)[C@@H]2N=NN(Cc3ccccc3)[C@H]12	> 100 µM (inactive)	–	> 100 µM (inactive)	> 100 µM (inactive)	> 100 µM (inactive)	> 100 µM (inactive)	–	–	> 100 µM (inactive)	> 100 µM (inactive)	> 100 µM (inactive)	> 100 µM (inactive)	> 100 µM (inactive)	–	–	> 100 µM (inactive)	> 100 µM (inactive)	–	> 100 µM (inactive)
CN1CCN(C(=S)N(C(=O)c2cccs2)C2CCCCC2)CC1	> 100 µM (inactive)	–	> 100 µM (inactive)	> 100 µM (inactive)	–	> 100 µM (inactive)	> 100 µM (inactive)	> 100 µM (inactive)	> 100 µM (inactive)	> 100 µM (inactive)	–	> 100 µM (inactive)	> 100 µM (inactive)	> 100 µM (inactive)	24.8 µM (inactive)	> 100 µM (inactive)	> 100 µM (inactive)	> 100 µM (inactive)	> 100 µM (inactive)
COP(=O)(Cc1ccc(/C=C/C#N)o1)OC	> 100 µM (inactive)	> 100 µM (inactive)	> 100 µM (inactive)	> 100 µM (inactive)	–	> 100 µM (inactive)	62.2 µM (inactive)	–	> 100 µM (inactive)	–	> 100 µM (inactive)	–	–	> 100 µM (inactive)	> 100 µM (inactive)	47.2 µM (inactive)	> 100 µM (inactive)	> 100 µM (inactive)	> 100 µM (inactive)
O=C1C=CC=C/C1=C1\N=C(c2ccccc2OCC(=O)c2ccc(Br)cc2)SS1	31.5 µM (inactive)	89.9 µM (inactive)	> 100 µM (inactive)	30 µM (inactive)	> 100 µM (inactive)	13.5 µM (inactive)	15.2 µM (inactive)	> 100 µM (inactive)	63.8 µM (inactive)	> 100 µM (inactive)	4.08 µM (inactive)	42.5 µM (inactive)	> 100 µM (inactive)	48 µM (inactive)	> 100 µM (inactive)	> 100 µM (inactive)	35.2 µM (inactive)	9.23 µM (inactive)	–
CC1(C)[C@@H](Cn2cc(I)c(=O)[nH]c2=O)CC[C@@]1(C)CO	> 100 µM (inactive)	> 100 µM (inactive)	> 100 µM (inactive)	> 100 µM (inactive)	> 100 µM (inactive)	> 100 µM (inactive)	> 100 µM (inactive)	> 100 µM (inactive)	> 100 µM (inactive)	> 100 µM (inactive)	> 100 µM (inactive)	> 100 µM (inactive)	> 100 µM (inactive)	> 100 µM (inactive)	–	–	–	–	–
COc1ccc(/C=N/n2c(C)n[nH]c2=O)cc1	> 100 µM (inactive)	85.7 µM (inactive)	54.3 µM (inactive)	–	> 100 µM (inactive)	–	–	–	–	> 100 µM (inactive)	> 100 µM (inactive)	> 100 µM (inactive)	> 100 µM (inactive)	> 100 µM (inactive)	–	> 100 µM (inactive)	> 100 µM (inactive)	–	–
O=C(Cc1nc2ccc(C(=O)c3ccccc3)cc2nc1O)C(=O)Nc1ccc(Br)cc1	> 100 µM (inactive)	> 100 µM (inactive)	> 100 µM (inactive)	> 100 µM (inactive)	88.1 µM (inactive)	> 100 µM (inactive)	53 µM (inactive)	79.4 µM (inactive)	71 µM (inactive)	–	> 100 µM (inactive)	> 100 µM (inactive)	57.7 µM (inactive)	78.2 µM (inactive)	69.7 µM (inactive)	> 100 µM (inactive)	> 100 µM (inactive)	> 100 µM (inactive)	–
Cc1cc2nc3c(N)nn(CCCN(C)C)c3nc2cc1C	68.9 µM (inactive)	> 100 µM (inactive)	> 100 µM (inactive)	> 100 µM (inactive)	> 100 µM (inactive)	71.6 µM (inactive)	> 100 µM (inactive)	–	–	41.3 µM (inactive)	> 100 µM (inactive)	–	46.6 µM (inactive)	–	–	–	> 100 µM (inactive)	–	–
O=C1c2c(O)cccc2Cc2cc(CO)cc(O)c21	3.21 µM (inactive)	3.03 µM (inactive)	1.66 µM (inactive)	–	1.08 µM (active)	4.08 µM (inactive)	–	–	1.61 µM (inactive)	2.66 µM (inactive)	3.01 µM (inactive)	–	1.89 µM (inactive)	5.36 µM (inactive)	0.684 µM (active)	2.21 µM (inactive)	1.85 µM (inactive)	4.03 µM (inactive)	2.82 µM (inactive)
Clc1ccc2c(NCCNC3CCCCC3)ccnc2c1	5.47 µM (inactive)	3.31 µM (inactive)	15 µM (inactive)	8.95 µM (inactive)	12.9 µM (inactive)	2.7 µM (inactive)	2.54 µM (inactive)	2.67 µM (inactive)	5.56 µM (inactive)	–	11.9 µM (inactive)	3.22 µM (inactive)	2.95 µM (inactive)	10.6 µM (inactive)	2.42 µM (inactive)	1.87 µM (inactive)	15.7 µM (inactive)	11.8 µM (inactive)	–
